Reference: PubChem BioAssay AID328 (DTP/NCI, 2004)
Values joined by “and” are separate entries in the source; they are usually repeats but may differ in a detail not shown here. Identical values can stand only once. Inconclusive results and toxic doses are left out.

Tested on: BDF1 mice, P388 leukemia ip, median survival T/C
Test: NCI In Vivo Anticancer Drug Screen. Data for tumor model P388 Leukemia (intraperitoneal) in B6D2F1 (BDF1) mice
Details: endpoint: median survival time, higher = longer survival
In short: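 Vehicle-dosed animals serve as the reference; survival of compound-dosed, tumour-implanted mice is divided by it.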

[1] = dose: 12.5 mg/kg/injection, schedule: Q01DX009 (ip), vehicle: saline with Tween-80
[2] = dose: 25.0 mg/kg/injection, schedule: Q01DX009 (ip), vehicle: saline with Tween-80
[3] = dose: 50.0 mg/kg/injection, schedule: Q01DX009 (ip), vehicle: saline with Tween-80
[4] = dose: 50.0 mg/kg/injection, schedule: Q01DX009 (ip), vehicle: Klucel (hydroxypropylcellulose) (HPC)
[5] = dose: 100.0 mg/kg/injection, schedule: Q01DX009 (ip), vehicle: Klucel (hydroxypropylcellulose) (HPC)
[6] = dose: 200.0 mg/kg/injection, schedule: Q01DX009 (ip), vehicle: Klucel (hydroxypropylcellulose) (HPC)
[7] = dose: 50.0 mg/kg/injection, schedule: Q04DX003 (ip), vehicle: saline with Tween-80
[8] = dose: 100.0 mg/kg/injection, schedule: Q01DX009 (ip), vehicle: saline with Tween-80
[9] = dose: 100.0 mg/kg/injection, schedule: Q04DX003 (ip), vehicle: saline with Tween-80
[10] = dose: 200.0 mg/kg/injection, schedule: Q01DX009 (ip), vehicle: saline with Tween-80
[11] = dose: 200.0 mg/kg/injection, schedule: Q04DX003 (ip), vehicle: saline with Tween-80
[12] = dose: 12.5 mg/kg/injection, schedule: Q04DX003 (ip), vehicle: saline with Tween-80
[13] = dose: 25.0 mg/kg/injection, schedule: Q04DX003 (ip), vehicle: saline with Tween-80
[14] = dose: 100.0 mg/kg/injection, schedule: Q04DX003 (ip), vehicle: Klucel (hydroxypropylcellulose) (HPC)
[15] = dose: 200.0 mg/kg/injection, schedule: Q04DX003 (ip), vehicle: Klucel (hydroxypropylcellulose) (HPC)
[16] = dose: 400.0 mg/kg/injection, schedule: Q01DX009 (ip), vehicle: saline with Tween-80
[17] = dose: 400.0 mg/kg/injection, schedule: Q04DX003 (ip), vehicle: saline with Tween-80

Structure (SMILES): NC(=S)N/N=C/c1cc(-c2cccc(N)c2)ccn1
- T/C [1]: 154 % of control
- T/C [2]: 162 % of control
- T/C [3]: 211 % of control
- T/C (dose: 75.0 mg/kg/injection, schedule: Q01DX009 (ip), vehicle: saline with Tween-80): 178 % of control

Structure (SMILES): N#CCc1nc2ccccc2[nH]1
- T/C [4]: 104 % of control
- T/C [5]: 109 % of control
- T/C [6]: 95 % of control

Structure (SMILES): CC(=O)c1ccccc1C
- T/C [3]: 100 % of control
- T/C [7]: 100 % of control
- T/C [8]: 109 % of control
- T/C [9]: 100 % of control
- T/C [10]: 95 % of control
- T/C [11]: 100 % of control

Structure (SMILES): CCOC(=O)C(Cc1ccc(N(CCCl)CCCl)cc1)NC=O (stereo unspecified)
- T/C (dose: 66.0 mg/kg/injection, schedule: Q04DX003 (ip), vehicle: saline with Tween-80): 181 % of control
- T/C [9]: 200 % of control and 209 % of control
- T/C (dose: 150.0 mg/kg/injection, schedule: Q04DX003 (ip), vehicle: saline with Tween-80): 268 % of control and 272 % of control
- T/C (dose: 375.0 micrograms/kg/injection, schedule: Q04DX003 (ip), vehicle: saline with Tween-80): 110 % of control
- T/C (dose: 750.0 micrograms/kg/injection, schedule: Q04DX003 (ip), vehicle: saline with Tween-80): 120 % of control

Structure (SMILES): C/C(=N\[N+](C)(C)C)c1ccccc1
- T/C (dose: 50.0 mg/kg/injection, schedule: Q04DX003 (ip), vehicle: saline): 95 % of control
- T/C (dose: 100.0 mg/kg/injection, schedule: Q04DX003 (ip), vehicle: saline): 109 % of control

Structure (SMILES): C1CC[N-]CC1.C1CC[N-]CC1.[I][Pt+2][I]
- T/C [4]: 93 % of control
- T/C [5]: 93 % of control

Structure (SMILES): CC1(C)C2CCC1(C)C(Cl)C2 (stereo unspecified)
- T/C (dose: 100.0 mg/kg/injection, schedule: Q04DX002 (ip), vehicle: saline with Tween-80): 100 % of control
- T/C (dose: 200.0 mg/kg/injection, schedule: Q04DX002 (ip), vehicle: saline with Tween-80): 103 % of control
- T/C (dose: 400.0 mg/kg/injection, schedule: Q04DX002 (ip), vehicle: saline with Tween-80): 107 % of control

Structure (SMILES): COC(=O)C(CC(C)C)NC(=O)C(Cc1ccc(Oc2ccc([N+](=O)[O-])cc2[N+](=O)[O-])cc1)NC=O (stereo unspecified)
- T/C (dose: 25.0 mg/kg/injection, schedule: Q04DX003 (ip), vehicle: water): 95 % of control
- T/C (dose: 300.0 mg/kg/injection, schedule: Q04DX003 (ip), vehicle: water): 99 % of control
- T/C (dose: 400.0 mg/kg/injection, schedule: Q04DX003 (ip), vehicle: water): 96 % of control and 98 % of control and 112 % of control

Structure (SMILES): NNC(=O)c1ccc(Cl)c(Cl)c1
- T/C (dose: 6.25 mg/kg/injection, schedule: Q01DX009 (ip), vehicle: saline with Tween-80): 113 % of control
- T/C [1]: 86 % of control
- T/C [12]: 98 % of control
- T/C [2]: 89 % of control
- T/C [13]: 107 % of control
- T/C [3]: 104 % of control
- T/C [7]: 107 % of control
- T/C (dose: 100.0 mg/kg/injection, schedule: Q01DX001 (ip), vehicle: saline sonified): 91 % of control
- T/C [8]: 97 % of control
- T/C [9]: 107 % of control
- T/C (dose: 200.0 mg/kg/injection, schedule: Q01DX001 (ip), vehicle: saline sonified): 100 % of control
- T/C [11]: 107 % of control

Structure (SMILES): CC1(C)CC(=O)C2=C(C1)OC1=C(C(=O)CC(C)(C)C1)C2c1cccc([N+](=O)[O-])c1
- T/C [3]: 104 % of control
- T/C [8]: 123 % of control
- T/C [10]: 106 % of control

Structure (SMILES): O=C(O)CCSc1ccccc1
- T/C [4]: 90 % of control
- T/C (dose: 50.0 mg/kg/injection, schedule: Q04DX003 (ip), vehicle: Klucel (hydroxypropylcellulose) (HPC)): 95 % of control
- T/C [5]: 100 % of control
- T/C [14]: 100 % of control
- T/C [6]: 109 % of control
- T/C [15]: 100 % of control

Structure (SMILES): Cn1ccc2nncn2c1=O
- T/C (dose: 100.0 mg/kg/injection, schedule: Q01DX001 (ip), vehicle: saline with Tween-80): 115 % of control
- T/C (dose: 200.0 mg/kg/injection, schedule: Q01DX001 (ip), vehicle: saline with Tween-80): 95 % of control
- T/C (dose: 400.0 mg/kg/injection, schedule: Q01DX001 (ip), vehicle: saline with Tween-80): 98 % of control

Structure (SMILES): CCOC(=O)C1CC1Cc1ccccc1 (stereo unspecified)
- T/C [8]: 108 % of control
- T/C [9]: 104 % of control
- T/C [10]: 108 % of control
- T/C [11]: 108 % of control
- T/C [16]: 120 % of control
- T/C [17]: 113 % of control

Structure (SMILES): O=C(Nc1ccc(NC(=O)Nc2ccc(C3=NCCCN3)cc2)cc1)Nc1ccc(C2=NCCCN2)cc1
- T/C (dose: 8.3 mg/kg/injection, schedule: Q04DX003 (ip), vehicle: saline): 122 % of control
- T/C (dose: 12.0 mg/kg/injection, schedule: Q04DX003 (ip), vehicle: saline): 122 % of control
- T/C (dose: 19.0 mg/kg/injection, schedule: Q04DX003 (ip), vehicle: saline): 165 % of control
- T/C (dose: 29.0 mg/kg/injection, schedule: Q04DX003 (ip), vehicle: saline): 175 % of control
- T/C (dose: 65.0 mg/kg/injection, schedule: Q04DX003 (ip), vehicle: saline): 154 % of control
- T/C (dose: 95.0 mg/kg/injection, schedule: Q04DX003 (ip), vehicle: saline): 163 % of control

Structure (SMILES): CC(=O)CC(=O)Nc1ccc(Cl)cc1Cl
- T/C [5]: 96 % of control
- T/C [14]: 87 % of control
- T/C [6]: 104 % of control
- T/C [15]: 87 % of control
- T/C (dose: 400.0 mg/kg/injection, schedule: Q01DX009 (ip), vehicle: Klucel (hydroxypropylcellulose) (HPC)): 88 % of control
- T/C (dose: 400.0 mg/kg/injection, schedule: Q04DX003 (ip), vehicle: Klucel (hydroxypropylcellulose) (HPC)): 95 % of control

Structure (SMILES): C/C=C/C(=O)OCCC[N+](C)(C)C
- T/C (dose: 0.09 mg/kg/injection, schedule: Q01DX009 (ip), vehicle: saline): 95 % of control
- T/C (dose: 0.19 mg/kg/injection, schedule: Q01DX009 (ip), vehicle: saline): 92 % of control
- T/C (dose: 0.39 mg/kg/injection, schedule: Q01DX009 (ip), vehicle: saline): 96 % of control and 109 % of control
- T/C (dose: 0.78 mg/kg/injection, schedule: Q01DX009 (ip), vehicle: saline): 96 % of control and 101 % of control
- T/C (dose: 1.56 mg/kg/injection, schedule: Q01DX009 (ip), vehicle: saline): 96 % of control and 111 % of control
- T/C (dose: 3.12 mg/kg/injection, schedule: Q01DX009 (ip), vehicle: saline): 100 % of control and 105 % of control
- T/C (dose: 6.25 mg/kg/injection, schedule: Q01DX009 (ip), vehicle: saline): 92 % of control

Structure (SMILES): COC(=O)c1ncccc1C(=O)O
- T/C [2]: 86 % of control
- T/C [3]: 95 % of control
- T/C [8]: 90 % of control

Structure (SMILES): CCN(CC)C(=O)c1cccc(COc2ccc(N3C(N)=NC(N)=NC3(C)C)cc2Cl)c1
- T/C (dose: 16.5 mg/kg/injection, schedule: Q01DX009 (ip), vehicle: saline): 110 % of control
- T/C (dose: 25.0 mg/kg/injection, schedule: Q01DX009 (ip), vehicle: saline): 120 % of control
- T/C (dose: 37.5 mg/kg/injection, schedule: Q01DX009 (ip), vehicle: saline): 120 % of control

Structure (SMILES): C[S+](C)N(c1ccccc1)C(C)(C)C
- T/C [12]: 99 % of control
- T/C [13]: 104 % of control
- T/C [7]: 89 % of control

Structure (SMILES): O=[N+]([O-])c1cnc2ccnn2c1
- T/C (dose: 12.5 mg/kg/injection, schedule: Q01DX009 (ip), vehicle: Klucel (hydroxypropylcellulose) (HPC)): 100 % of control
- T/C (dose: 25.0 mg/kg/injection, schedule: Q01DX009 (ip), vehicle: Klucel (hydroxypropylcellulose) (HPC)): 100 % of control
- T/C [4]: 100 % of control
- T/C [5]: 95 % of control

Structure (SMILES): O=C(/C=C/c1ccc(F)cc1)c1ccc(Cl)cc1
- T/C [8]: 90 % of control
- T/C [10]: 90 % of control
- T/C [16]: 100 % of control

Structure (SMILES): CN=C(c1ccc(NC(=O)c2ccc(C(=O)Nc3ccc(C(=NC)N(C)C)cc3)cc2)cc1)N(C)C
- T/C (dose: 2.0 mg/kg/injection, schedule: Q01DX010 (ip), vehicle: water): 110 % of control
- T/C (dose: 4.0 mg/kg/injection, schedule: Q01DX010 (ip), vehicle: water): 115 % of control

Structure (SMILES): CC1=CC=CC(=O)C1(C)C(Cl)Cl (stereo unspecified)
- T/C [9]: 110 % of control
- T/C [11]: 115 % of control
- T/C [17]: 120 % of control

Structure (SMILES): CCCN(/C=C/C=C/C=[N+](CCC)CCC)CCC
- T/C (dose: 0.03 mg/kg/injection, schedule: Q01DX009 (ip), vehicle: saline): 99 % of control
- T/C (dose: 0.05 mg/kg/injection, schedule: Q01DX009 (ip), vehicle: saline): 104 % of control
- T/C (dose: 0.1 mg/kg/injection, schedule: Q01DX009 (ip), vehicle: saline): 106 % of control
